The text below walks through data of ChEMBL document CHEMBL1142038, “Novel and potent NPY5 receptor antagonists derived from virtual screening and iterative parallel chemistry design” (Bioorg Med Chem Lett, 2005).

SMILES strings stand for the structures.

The target of experiment [1] is T1, Neuropeptide Y receptor type 5 (Mus musculus, UniProt O70342).
T1 sequence (O70342 whole entry): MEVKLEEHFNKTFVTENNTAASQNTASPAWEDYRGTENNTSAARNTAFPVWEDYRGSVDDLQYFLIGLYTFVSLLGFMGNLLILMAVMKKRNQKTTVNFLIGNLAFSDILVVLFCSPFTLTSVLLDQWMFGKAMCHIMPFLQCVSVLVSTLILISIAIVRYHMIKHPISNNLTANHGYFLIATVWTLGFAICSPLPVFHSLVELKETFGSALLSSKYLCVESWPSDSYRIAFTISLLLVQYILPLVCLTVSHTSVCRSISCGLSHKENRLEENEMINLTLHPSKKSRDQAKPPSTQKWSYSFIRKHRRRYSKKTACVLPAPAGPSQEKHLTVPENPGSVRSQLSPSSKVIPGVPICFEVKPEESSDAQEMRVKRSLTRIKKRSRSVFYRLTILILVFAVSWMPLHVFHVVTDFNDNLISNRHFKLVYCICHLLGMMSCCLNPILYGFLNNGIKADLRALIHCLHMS
Nature of the experiment: Inhibitory concentration against Neuropeptide Y receptor type 5 in mouse. Format: organism-based.

In experiment [2] the target is T1, Neuropeptide Y receptor type 5. The experiment is described as follows: Inhibitory concentration against Neuropeptide Y receptor type 5 in mouse; Inactive.

In general, IC50 refers to the concentration needed to halve the response being measured. A low value points to higher potency. Consider `O=C(c1cnc(Nc2cccc(C(F)(F)F)c2)s1)c1ccccc1C(F)(F)F`, for which the 50% inhibitory concentration (IC50) in experiment [1] turned out to be 138 nM. In other words, the sub-micromolar range. On the same count and under the same terms, the value for `Cc1cc(C(=O)c2cnc(Nc3cccc(C#N)c3)s2)c(C)s1` was 14 nM; that for `Cc1ccccc1C(=O)c1cnc(Nc2cccc(C(F)(F)F)c2)s1` was 63 nM. As for `O=C(c1cnc(Nc2cc(Cl)cc(Cl)c2)s1)c1ccccc1F`, in experiment [2], the half-maximal inhibitory concentration (IC50) result is listed as “Not Active”. Turning to `N#Cc1cccc(Nc2ncc(C(=O)c3ccccc3F)s2)c1`, the midpoint of inhibition in experiment [1], the IC50, lay at 19 nM. The same measure, in the same setting: in the case of `CCc1ccccc1C(=O)c1cnc(Nc2cccc(C(F)(F)F)c2)s1` it was 32 nM; in that of `COc1ccc(C(=O)c2cnc(Nc3cccc(C#N)c3)s2)cc1`, 2230 nM.

`Cc1ccccc1C(=O)c1cnc(Nc2cccc(C#N)c2)s1`: the IC50 in experiment [1] was determined as 4.2 nM.

Turning to `Cc1cc(C(=O)c2cnc(Nc3cccc(C(F)(F)F)c3)s2)c(C)s1`, the midpoint of inhibition in experiment [1], the IC50, lay at 395 nM. The same measure, in the same setting: the value for `N#Cc1cccc(Nc2ncc(C(=O)c3ccccc3C(F)(F)F)s2)c1` was 20 nM; that for `O=C(c1cccc(F)c1)c1cnc(Nc2cccc(C(F)(F)F)c2)s1` was 885 nM; that for `O=C(c1cnc(Nc2ccc(Cl)cc2)s1)c1ccccc1F` was 1670 nM.

For the compound `COc1cccc(Nc2ncc(C(=O)c3ccccc3F)s2)c1`, the midpoint of inhibition in experiment [1], the IC50, lay at 1000 nM.

`CCc1ccccc1C(=O)c1cnc(Nc2cccc(C#N)c2)s1` showed an IC50 in experiment [1] of 2.8 nM. This IC50 is about 360-fold lower than that of the compound before.
